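Briefly, cells in 96-well plates were exposed to five compound concentrations for 48 h, and endpoints were estimated by linear interpolation. GI50 = concentration required for 50% inhibition of growth.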 The source made the active and inactive calls. Rule as the data show it: active = GI50 up to about 1.1 µM and inactive = higher.
How the values were obtained:
Experiment in all cases: NCI tumour cell line growth inhibition, 48 h
[1] = tested on: 786-0
[2] = tested on: A498
[3] = tested on: BT-549
[4] = tested on: HCC 2998
[5] = tested on: HCT-116
[6] = tested on: HL-60
[7] = tested on: HT-29
[8] = tested on: LOX IMVI
[9] = tested on: M14
[10] = tested on: MDA-MB-231
[11] = tested on: NCI-H226
[12] = tested on: NCI-H23
[13] = tested on: OVCAR-8
[14] = tested on: RXF 393
[15] = tested on: SK-MEL-28
[16] = tested on: SNB-75
[17] = tested on: SW-620
[18] = tested on: T47D
[19] = tested on: UACC-257
[20] = tested on: UACC-62

Measured: GI50

O=c1[nH]c(=O)c2ncn(-c3ccc([N+](=O)[O-])cn3)c2[nH]1
inactive: [1] > 100 µM | [2] > 100 µM | [3] > 100 µM | [4] > 100 µM | [5] > 100 µM | [6] > 100 µM | [7] > 100 µM | [8] > 100 µM | [9] > 100 µM | [10] > 100 µM | [11] > 100 µM | [12] > 100 µM | [13] > 100 µM | [14] > 100 µM | [15] > 100 µM | [16] > 100 µM | [17] > 100 µM | [18] > 100 µM | [19] > 100 µM | [20] 74.1 µM

O=C(c1ccc(Cl)cc1)N1N=C(c2ccc(Cl)cc2)CC1(O)c1cc(F)c(Cl)cc1Cl (stereo not given)
inactive: [1] 18.9 µM | [2] 13.6 µM | [3] 62.2 µM | [4] 15.5 µM | [5] 5.66 µM | [6] 21.2 µM | [7] 8.95 µM | [8] 15.2 µM | [9] 28.7 µM | [10] 34.2 µM | [11] 50.6 µM | [12] 12.2 µM | [13] 21.3 µM | [14] 23.9 µM | [15] 44.3 µM | [16] 10 µM | [17] 17.4 µM | [18] 9.95 µM | [19] 25.7 µM | [20] 21.5 µM

Cc1ccnc2c1c(=O)c1ccccc1n2C
inactive: [1] 53.6 µM | [2] 31.8 µM | [3] 27.1 µM | [4] 39.9 µM | [5] 39.4 µM | [6] 34.2 µM | [7] 29.5 µM | [8] 37.6 µM | [9] 39 µM | [10] 31.8 µM | [11] 44.7 µM | [12] 49.1 µM | [13] 34.4 µM | [14] 33.3 µM | [15] 43 µM | [16] 17.6 µM | [17] 35.5 µM | [18] 38.9 µM | [19] 37.1 µM | [20] 16.2 µM

O=c1[nH]c(=O)n(C/C=C/CO)nc1Br
inactive: [1] > 100 µM | [2] > 100 µM | [3] > 100 µM | [4] > 100 µM | [5] > 100 µM | [6] > 100 µM | [7] > 100 µM | [8] > 100 µM | [9] > 100 µM | [10] > 100 µM | [11] > 100 µM | [12] > 100 µM | [13] > 100 µM | [14] > 100 µM | [15] > 100 µM | [16] > 100 µM | [17] > 100 µM | [18] > 100 µM | [19] > 100 µM | [20] > 100 µM

O=c1sc2c(s1)-c1sc(=O)sc1SS2
inactive: [1] > 100 µM | [2] > 42.9 µM | [3] > 100 µM | [4] > 100 µM | [5] > 100 µM | [6] > 100 µM | [7] > 42.1 µM | [8] > 60.4 µM | [9] 48.2 µM | [10] > 100 µM | [11] 38.6 µM | [12] > 37.5 µM | [13] 21.6 µM | [14] > 100 µM | [15] > 100 µM | [16] 7.71 µM | [17] > 100 µM | [18] > 100 µM | [19] > 96.8 µM | [20] > 100 µM

O=C(CSc1nc2ccc(I)cc2c(=O)n1Cc1ccccc1)NN1C(=O)c2ccccc2C1=O
inactive: [1] 6.04 µM | [2] 14.8 µM | [3] 15.4 µM | [4] 28.8 µM | [5] 16.7 µM | [6] 16.7 µM | [7] 24.8 µM | [8] 15 µM | [9] 28.5 µM | [10] 11.2 µM | [11] 6.3 µM | [12] 18.2 µM | [13] 11.8 µM | [14] 8.3 µM | [15] 17.9 µM | [16] 4.3 µM | [17] 27.5 µM | [18] 15.8 µM | [19] 17.5 µM | [20] 24.9 µM

COC(=O)C(CCC(=O)CCl)N1C(=O)c2ccccc2C1=O (stereo not given)
inactive: [1] 4.05 µM | [2] 19.5 µM | [3] 8.97 µM | [4] 8.18 µM | [5] 5.07 µM | [6] 2.53 µM | [7] 9.64 µM | [8] 1.57 µM | [9] 5.27 µM | [10] 12.6 µM | [11] 18.7 µM | [12] 9.89 µM | [13] 12.3 µM | [14] 2.39 µM | [15] 10.7 µM | [16] 8.13 µM | [17] 3.62 µM | [18] 6.25 µM | [19] 7.18 µM | [20] 10.8 µM

Cc1ccc2c(c1)C(=O)c1ccc(C)nc1C2=O
inactive: [1] 85.9 µM | [2] > 100 µM | [3] 25.6 µM | [4] 31.3 µM | [5] 19.1 µM | [6] 26.7 µM | [7] 31.8 µM | [8] 21.9 µM | [9] 31.8 µM | [10] 3.98 µM | [11] > 100 µM | [12] 18.9 µM | [13] 46.9 µM | [14] > 100 µM | [15] 46.8 µM | [16] 42.4 µM | [17] 27.9 µM | [18] 62.7 µM | [19] 24 µM | [20] 21.9 µM

Cc1cc(CN(Cc2ccccc2)Cc2nc3ccccc3[nH]2)c(O)c(CN(Cc2nc3ccccc3[nH]2)Cc2nc3ccccc3[nH]2)c1
inactive: [1] 15 µM | [2] 10.2 µM | [3] 4.76 µM | [4] 6.43 µM | [5] 4.16 µM | [6] 2.16 µM | [7] 4.11 µM | [8] 3.48 µM | [9] 5.94 µM | [10] 12.4 µM | [11] 3.42 µM | [12] 6.93 µM | [13] 4.18 µM | [14] 13.5 µM | [15] 26.2 µM | [16] 8.91 µM | [17] 14.1 µM | [18] 8.05 µM | [19] 4.86 µM | [20] 3.56 µM

N#C/C(=C\c1ccc2[nH]ccc2c1)C(=O)NCCCCNC(=O)/C(C#N)=C/c1ccc2[nH]ccc2c1
inactive: [1] > 31.6 µM | [2] > 31.6 µM | [3] > 10 µM | [4] > 31.6 µM | [5] > 31.6 µM | [6] > 31.6 µM | [7] > 31.6 µM | [8] > 31.6 µM | [9] > 31.6 µM | [10] > 10 µM | [11] > 31.6 µM | [12] > 31.6 µM | [13] > 31.6 µM | [14] > 10 µM | [15] > 31.6 µM | [16] > 31.6 µM | [17] > 31.6 µM | [18] > 10 µM | [19] > 31.6 µM | [20] > 31.6 µM

CCOC1=C(c2ccccc2)N2CCCCC2O1 (stereo not given)
inactive: [1] 4.55 µM | [2] 8.73 µM | [3] 5.33 µM | [4] 3.12 µM | [5] 2.88 µM | [6] 1.5 µM | [7] 2.99 µM | [8] 3.77 µM | [9] 3.46 µM | [10] 3.61 µM | [11] 3.42 µM | [12] 3.29 µM | [13] 3.89 µM | [14] 7.89 µM | [15] 12.3 µM | [16] 2.83 µM | [17] 4.21 µM | [18] 2.04 µM | [19] 3.46 µM | [20] 3.48 µM

CC1CCCc2c(CC3CC(=O)NC(=O)C3)nc(N)nc21 (stereo not given)
inactive: [1] > 100 µM | [2] > 100 µM | [3] > 100 µM | [4] > 100 µM | [5] > 100 µM | [6] 2.21 µM | [7] > 100 µM | [8] > 100 µM | [9] > 100 µM | [10] > 100 µM | [11] > 100 µM | [12] > 100 µM | [13] > 100 µM | [14] > 100 µM | [15] > 100 µM | [16] 95.7 µM | [17] > 100 µM | [18] > 100 µM | [19] > 100 µM | [20] > 100 µM

O=C(O)C(F)(OC(F)(F)C(F)(F)C(F)(F)F)C(F)(F)F (stereo not given)
inactive: [1] > 100 µM | [2] > 100 µM | [3] > 100 µM | [4] > 100 µM | [5] > 100 µM | [6] > 100 µM | [7] > 100 µM | [8] > 100 µM | [9] > 100 µM | [10] > 100 µM | [11] > 100 µM | [12] > 100 µM | [13] > 100 µM | [14] > 100 µM | [15] > 100 µM | [16] > 100 µM | [17] > 100 µM | [18] > 100 µM | [19] > 100 µM | [20] > 100 µM

CCCCCCCCCCCCOP(=O)(O)OP(=O)(O)OCC1OC(n2ccc(N)nc2=O)CC1O (stereo not given)
inactive: [1] > 100 µM | [2] > 100 µM | [3] > 100 µM | [4] > 100 µM | [5] > 100 µM | [6] > 100 µM | [7] > 100 µM | [8] > 100 µM | [9] > 100 µM | [10] > 100 µM | [11] > 100 µM | [12] > 100 µM | [13] > 100 µM | [14] > 100 µM | [15] > 100 µM | [16] 95.9 µM | [17] > 100 µM | [18] 38.3 µM | [19] > 100 µM | [20] > 100 µM
